Data as given in BigSolDB 2.1.

CC(C)OC(=O)[C@H](C)N[P@](=O)(OC[C@H]1O[C@@H](n2ccc(=O)[nH]c2=O)[C@](C)(F)[C@@H]1O)Oc1ccccc1
solubility (mole fraction)
Conditions	278.15 K	283.15 K	288.15 K	293.15 K	298.15 K	303.15 K	308.15 K	313.15 K	318.15 K
in acetone	0.0275	0.0343	0.0435	0.0538	0.066	0.0796	0.0951	0.113	0.134
in acetonitrile	0.00484	0.00629	0.00812	0.0101	0.0127	0.0156	0.019	0.0234	0.0286
in cyclohexane	–	6.09e-07	9.4e-07	1.44e-06	2.09e-06	3.05e-06	4.33e-06	6.11e-06	8.66e-06
in ethanol	0.022	0.0274	0.0342	0.0416	0.0505	0.0599	0.0712	0.0842	0.0997
in ethyl acetate	0.00263	0.00362	0.00486	0.00641	0.0084	0.0108	0.0139	0.0178	0.0228
in n-butanol	0.00935	0.0116	0.0144	0.0182	0.0225	0.0278	0.034	0.0413	0.0501
in toluene	4.46e-06	7.43e-06	1.1e-05	1.75e-05	2.67e-05	4.02e-05	6.15e-05	9.44e-05	0.000144
in water	1.18e-05	1.85e-05	2.59e-05	3.65e-05	5.05e-05	7.02e-05	9.6e-05	0.000131	0.00017
